Entries after “also recorded” stand apart in the source; their conditions may differ.

Series [1] relates to endogenous ULK1. Briefly: Immunoblot of endogenous ULK1 Ser555 phosphorylation in primary murine hepatocytes. The following applies: wild-type vs AMPK-deficient, 2 mM metformin for 2 h. It counts as cell-based.
Experimental: Data shown as mean+/−SEM. * p<0.01 (B) Primary hepatocytes derived from ULK1^+/+ or ULK1^+/− mice or AMPKa1^−/− a2^L/+ or AMPKa1^−/− a2^L/L as described in methods were placed in media containing 2 mM metformin (met) or vehicle (veh) for 2 h. Lysates were immunoblotted with the indicated antibodies.
Primary hepatocytes were isolated. Briefly, livers were perfused with Hank's balanced salt solution (HESS, KCI, 5.4 mM; KH2PO4, 0.45 mM; NaCl, 138 mM; NaHCO2, 4.2 mM; Na2HPO4, 0.34 mM; glucose, 5.5 mM; HEPES, 1 M; EGTA, 50 mM; CaCl2, 50 mM; pH 7.4). Livers were washed at a rate of 5 ml/min using the portal vein before collagenase (0.025%) was added. Cell viability was assessed by the trypan blue exclusion test and was always higher than 60%. […]
Cell lysis, immunoprecipitations, and mammalian autophagy analysis. […] Immunoprecipitated proteins were denatured by the addition of 20 pl of sample buffer and boiling for 5 minutes, resolved by 8%-16% SDSPAGE, and analyzed by immunoblottina as described. […] Quantification of westerns blots was achieved using Kodak Multi Gage software and normalizing to the appropriate loading control (actin when comparing p62 or LC3, or total protein level when comparing phospho-specific antibodies). […]
Series [2] deals with endogenous ULK1. Briefly: Immunoblot of endogenous ULK1 P-Ser555 in primary murine embryonic fibroblasts (MEFs). It counts as cell-based. Conditions: wild-type vs AMPK-deficient, 2 mM AICAR for 1 h.
For series [3], the system named is T1, myc-tagged catalytically inactive (KI: K46I) ULK1.
T1 sequence: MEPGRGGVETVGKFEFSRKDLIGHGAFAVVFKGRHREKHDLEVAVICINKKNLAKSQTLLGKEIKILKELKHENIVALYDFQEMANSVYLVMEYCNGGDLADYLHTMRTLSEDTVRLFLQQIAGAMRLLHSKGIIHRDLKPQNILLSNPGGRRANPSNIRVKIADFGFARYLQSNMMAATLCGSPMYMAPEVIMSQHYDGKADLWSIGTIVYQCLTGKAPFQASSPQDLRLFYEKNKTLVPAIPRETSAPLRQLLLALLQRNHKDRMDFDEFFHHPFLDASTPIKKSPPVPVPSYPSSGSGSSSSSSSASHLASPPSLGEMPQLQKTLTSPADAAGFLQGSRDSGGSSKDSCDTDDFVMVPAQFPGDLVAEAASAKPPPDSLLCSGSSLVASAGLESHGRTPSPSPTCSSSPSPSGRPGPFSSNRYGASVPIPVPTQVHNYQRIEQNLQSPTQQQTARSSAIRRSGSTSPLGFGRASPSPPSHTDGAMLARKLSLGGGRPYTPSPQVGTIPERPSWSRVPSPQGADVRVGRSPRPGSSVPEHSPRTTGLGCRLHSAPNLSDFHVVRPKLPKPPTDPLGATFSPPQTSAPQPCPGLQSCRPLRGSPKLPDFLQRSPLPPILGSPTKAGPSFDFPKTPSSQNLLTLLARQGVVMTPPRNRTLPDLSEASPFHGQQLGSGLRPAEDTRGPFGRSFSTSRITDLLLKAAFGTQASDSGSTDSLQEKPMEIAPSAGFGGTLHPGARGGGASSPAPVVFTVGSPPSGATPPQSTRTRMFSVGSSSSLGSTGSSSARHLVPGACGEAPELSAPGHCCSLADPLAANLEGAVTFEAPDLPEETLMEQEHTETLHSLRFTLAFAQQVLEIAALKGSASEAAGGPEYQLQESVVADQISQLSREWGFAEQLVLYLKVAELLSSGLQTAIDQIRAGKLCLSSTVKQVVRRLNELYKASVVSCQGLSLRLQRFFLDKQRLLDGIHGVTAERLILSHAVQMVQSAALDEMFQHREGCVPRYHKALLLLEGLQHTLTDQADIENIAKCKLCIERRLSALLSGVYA

Series [4] concerns the target myc-tagged wild-type raptor (UniProt Q8N122).
Series [5] relates to ULK1. Kind of series: Tandem mass spectrometry (LC/MS/MS) of phosphorylation sites on myc-ULK1 from HEK293T cells. In kind it is cell-based, human. How it is done:
FIG. 7A is a diagram of all LC/MS/MS identified in vivo phosphorylation sites in human ULK1. Myc-ULK1 was transfected into human embryonic kidney (HEK)-293T cells, treated with 5 mM phenformin to reduce cellular ATP for 1 hour and immunoprecipitated with anti myc antibody. The IP was run out on SDS PAGE, stained with coomassie, and the band corresponding to myc-ULK1 was cut out, and isolated and subjected to tryptic digest and LC/MS/MS analysis. Three indicated sites matching the AMPK substrate motif were identified, all mapping to the serine-rich unstructured region between the N-terminal kinase domain and the conserved C-terminus that mediates ULK1 binding to its subunits Atg13 and FIP200.
FIG. 7B is a bar graph of quantitative mass spec spectrometry (MS/MS TIC ratio quantification) data showing that tryptic peptides containing Phospho5er555 and Phospho-5er637 of ULK1 are induced by treatment of HEK293T cells with 5 mM phenformin for 1 h.
Mass Spectrometry. Myc-ULK1 overexpressed in HEK293T cells was treated with vehicle or 5 mM phenformin for 1 hour, IP'd with anti myc antibody (Cell Signaling), run out on SDS-PAGE gel and coomassie stained. […] Peptide ions from AMPK predicted phosphorylation sites were also targeted in MS/MS mode for quantitative analyses. […]
Relative Quantification of Phosphorylation Sites. […]

Series [6] has as its system ULK1. Briefly: Immunoblot with phospho-specific antibodies against ULK1 Ser467 and Ser555 in transfected HEK293T cells. It counts as cell-based, human. The following applies: HEK293T cells with myc-tagged ULK1, 1 mM phenformin for 1 h vs vehicle. The method, then:
FIGS. 1A-1F show ULK1 is a conserved substrate of AMPK. (A) Clustal alignment of four conserved sites in ULK1 and two sites in ULK2 matching the optimal AMPK substrate motif. (B) ULK1 and GST or GST-14-3-3 expression vectors were transfected into human embryonic kidney (HEK)293T cells, and placed in media containing […] STO-609 (STO), vehicle (veh), or 5 mM phenformin (Phen) for 1 h. Cell lysates and GST pulldowns were immunoblotted as indicated. […] (D) HEK293T cells transfected with myc-tagged wild-type ULK1 or indicated Serine-to-alanine ULK1 mutants were treated with either vehicle or 1 mM phenformin for 1 h, or were co-transfected with a constitutively active AMPKα1 (aa1-312) mammalian expression vector (11). Proteins from lysates were immunoblotted with phospho-specific antibodies as indicated. […] Phosphorylation of myc-ULK1 detected by immunoblotting with indicated phospho-specific antibodies. […]
Cell lysis, immunoprecipitations, and mammalian autophagy analysis. […] Immunoprecipitated proteins were denatured by the addition of […] of sample buffer and boiling for 5 minutes, resolved by 8%-16% SDSPAGE, and analyzed by immunoblottina as described. […] Quantification of westerns blots was achieved using Kodak Multi Gage software and normalizing to the appropriate loading control (actin when comparing p62 or LC3, or total protein level when comparing phospho-specific antibodies). […]

myc-tagged wild-type raptor, sequence (Q8N122 whole entry, looked up): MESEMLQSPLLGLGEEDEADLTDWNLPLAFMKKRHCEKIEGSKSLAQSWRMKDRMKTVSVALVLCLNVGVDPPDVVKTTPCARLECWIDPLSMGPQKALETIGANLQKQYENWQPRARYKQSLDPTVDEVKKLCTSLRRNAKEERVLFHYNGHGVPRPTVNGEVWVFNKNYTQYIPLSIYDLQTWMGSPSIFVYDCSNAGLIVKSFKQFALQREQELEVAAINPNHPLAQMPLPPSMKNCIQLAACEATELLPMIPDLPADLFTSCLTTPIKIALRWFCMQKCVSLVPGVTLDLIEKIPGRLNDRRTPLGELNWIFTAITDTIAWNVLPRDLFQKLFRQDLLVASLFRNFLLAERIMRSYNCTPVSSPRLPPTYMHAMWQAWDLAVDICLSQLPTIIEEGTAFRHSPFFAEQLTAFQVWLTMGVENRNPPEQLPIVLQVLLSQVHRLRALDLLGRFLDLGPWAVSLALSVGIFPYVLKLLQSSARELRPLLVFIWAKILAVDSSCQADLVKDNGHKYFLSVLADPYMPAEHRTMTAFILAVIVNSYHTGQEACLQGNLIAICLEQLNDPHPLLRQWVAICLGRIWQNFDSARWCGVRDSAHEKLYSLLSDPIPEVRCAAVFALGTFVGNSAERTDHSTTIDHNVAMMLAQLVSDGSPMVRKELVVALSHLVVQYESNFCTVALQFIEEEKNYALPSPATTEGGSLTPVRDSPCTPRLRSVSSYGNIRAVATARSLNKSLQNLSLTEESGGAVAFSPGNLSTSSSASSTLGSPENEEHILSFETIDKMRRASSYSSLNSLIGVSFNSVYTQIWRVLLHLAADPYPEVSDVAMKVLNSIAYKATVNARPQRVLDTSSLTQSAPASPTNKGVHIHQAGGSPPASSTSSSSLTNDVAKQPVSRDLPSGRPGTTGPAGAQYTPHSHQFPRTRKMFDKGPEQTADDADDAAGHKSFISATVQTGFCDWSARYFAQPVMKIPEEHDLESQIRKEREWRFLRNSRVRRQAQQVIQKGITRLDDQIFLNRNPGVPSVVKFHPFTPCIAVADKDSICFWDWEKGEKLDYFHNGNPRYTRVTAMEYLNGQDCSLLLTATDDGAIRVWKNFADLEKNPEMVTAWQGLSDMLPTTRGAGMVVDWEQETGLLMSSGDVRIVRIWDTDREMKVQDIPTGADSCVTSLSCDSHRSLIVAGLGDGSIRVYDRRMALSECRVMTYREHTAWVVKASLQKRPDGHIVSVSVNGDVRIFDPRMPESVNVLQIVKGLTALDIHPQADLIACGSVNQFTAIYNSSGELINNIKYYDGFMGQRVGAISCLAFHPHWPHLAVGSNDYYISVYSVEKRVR

Take `CN(C)C(=N)N=C(N)N` [metformin]: the “phosphorylation of endogenous ULK1 Ser555” value with endogenous ULK1 [1] is recorded as “Increased phosphorylation of endogenous ULK1 Ser555 was observed in wild-type but not AMPK-deficient hepatocytes”.

With `NC(=O)c1ncn([C@@H]2O[C@H](CO)[C@@H](O)[C@H]2O)c1N` [AICAR], the “phosphorylation of endogenous ULK1 on Ser555” value in the series on endogenous ULK1 [2] is listed as “phosphorylation of endogenous ULK1 was observed on Ser555 in an AMPK-dependent manner; also recorded: phosphorylated on Ser555 in an AMPK-dependent manner”.

On to “purified active AMPK heterotrimer (partially purified rat liver, Millipore cat #14-305)”, for which the “in vitro kinase assay, 32P incorporation” value in series [3] is “AMPK phosphorylated ULK1 to a greater extent than an established substrate, Raptor”; in series [4], “AMPK phosphorylated ULK1 to a greater extent than an established substrate, Raptor”.

Take `[H]/N=C(/N)N/C(=N/[H])NCCc1ccccc1` [phenformin]: in the series with ULK1 [5] (5 mM phenformin for 1 h), the “tryptic peptides containing Phospho-Ser555 and Phospho-Ser637 of ULK1, quantitative mass spectrometry (MS/MS TIC ratio quantification)” value was “induced”. Moreover, in the series on ULK1 [5] (epitope-tagged ULK1, with or without 5 mM phenformin for 1 hour), the “phosphorylation of ULK1 candidate AMPK sites Ser555, Thr574, Ser637 detected by tandem mass spectrometry” value is given as “all three were phosphorylated only after phenformin treatment”. Besides, in the series with ULK1 [6], the “phosphorylation of ULK1 Ser467 and Ser555 (phospho-specific antibodies)” value is “Phosphorylation of both sites was induced”.

The record behind these values is patent US20160289651A1, “ULK1 COMPOSITIONS, INHIBITORS, SCREENING AND METHODS OF USE” (Salk Institute for Biological Studies, priority 2009, published 2016).
